Values of other authors as cited in patent US11331392B2, “Biodegradable thermo-responsive polymers and uses thereof” (The Trustees of Columbia University in the City of New York, priority 2014, dated 2022).

Test system: endothelial and tumor cells

In the case of `Cc1cc(O)ccc1O` [methylhydroquinone (MHQ), methylhydroquinone], the “concentration range inhibiting growth of cells in culture” value is given as “micromolar range”.
